Reference: patent US8846656B2, “Tetrahydropyrido-pyridine and tetrahydropyrido-pyrimidine compounds and use thereof as C5a receptor modulators” (Novartis AG, priority 2011, dated 2014)

Columns and labels:
human C5aR = human C5aR (Homo sapiens (Human), UniProt P21730); test: FLIPR assay: inhibition of C5a-mediated calcium mobilization; type: cell-based; details: stable cell line over expressing human C5aR & Gα15, human C5a at EC50 (0.1-0.25 nM)
How it was run: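 Compounds were added for 30 minutes at room temperature (1% DMSO) ahead of C5a stimulation. Before this, cells were dye-loaded for 1 h at 37° C: calcium 5 with 2.5 mM probenecid in HBSS, 20 mM HEPES, 0.1% BSA. Cells co-express human C5aR and Gα15; read-out is FLIPR Tetra calcium flux.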

CD11b = test: Human whole blood CD11b up-regulation assay; type: cell-based; details: Homo sapiens, 2 nM human C5a, CD15+ granulocytes, read-out: hCD11b IC50
Experimental: Whole blood was collected in sodium heparin tubes and the assay started within 2 hours of the blood draw. The blood was incubated with compounds in 1% DMSO (dimethyl sulfoxide) at room temperature for 10 minutes with gentle rocking. 2 nM of human C5a was then added for 15 minutes at room temperature with gentle rocking. Following the C5a incubation period cells were washed once with cold FACS (fluorescence-activated cell sorting) buffer (phosphate buffered saline+0.5% bovine serum albumin) FITC (fluorescein isothiocyanate) mouse anti-human CD15 and PE-Cy5 (phycoerythrin-cyanine 5) mouse anti-human CD11b antibodies (Becton Dickinson) were gently mixed with the cells and allowed to incubate for 30 minutes on ice protected from the light. Cells were then washed three times with cold FACS buffer. Red blood cells (RBC) were lysed by incubating with BD FACS lysis buffer (Becton Dickinson) for 10 minutes at room temperature. Cells were pelleted and the lysing procedure was repeated until all RBCs were lysed. The remaining leukocytes were resuspended in BD lysis buffer. Samples were acquired on the LSR^11 flow cytometer and 10,000 events of the CD15+ granulocyte population were collected. The CD11b median fluorescence intensity of the CD 15+ cell population was evaluated using FACSDiva software (Becton Dickinson).

human C5aR, sequence (P21730 whole entry): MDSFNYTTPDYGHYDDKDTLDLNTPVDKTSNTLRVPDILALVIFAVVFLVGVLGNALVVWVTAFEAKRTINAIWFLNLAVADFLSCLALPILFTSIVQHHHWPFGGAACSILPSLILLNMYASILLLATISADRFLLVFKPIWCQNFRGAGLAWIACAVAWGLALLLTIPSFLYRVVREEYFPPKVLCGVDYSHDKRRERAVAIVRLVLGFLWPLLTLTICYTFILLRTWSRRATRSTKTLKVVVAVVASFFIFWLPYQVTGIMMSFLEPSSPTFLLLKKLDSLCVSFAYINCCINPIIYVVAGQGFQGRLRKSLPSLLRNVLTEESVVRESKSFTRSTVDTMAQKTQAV

IC50 (human C5aR)	IC50 (CD11b)	SMILES
31 nM	30 nM	CO[C@@H]1CCN(c2nc(-c3c(C)cccc3C#N)nc3c2CN(c2cc(C(C)C)ccc2C)CC3)C[C@H]1C [Example 19-AK, 2-(6-(5-isopropyl-2-methylphenyl)-4-((3R,4R)-4-methoxy-3-methylpiperidin-1-yl)-5,6,7,8-tetrahyropyrido[4,3-d]pyrimidin-2-yl)-3-methylbenzonitrile]
4 nM	11 nM	CO[C@@H]1CCN(c2nc(-c3c(C)cccc3C)nc3c2CN(c2cc(C(F)(F)F)ccc2C)CC3)CC1(C)C [Example 21-AB, (R)-2-(2,6-dimethylphenyl)-4-(4-methoxy-3,3-dimethylpiperidin-1-yl)-6-(2-methyl-5-(trifluoromethyl)phenyl)-5,6,7,8-tetrahydropyrido[4,3-d]pyrimidine]
9 nM	93 nM	CO[C@@H]1CCN(c2nc(-c3c(C)cc(C)cc3C)nc3c2CN(c2cc(C(C)C)ccc2C)CC3)CC1(C)C [Example 21-AE, (R)-6-(5-isopropyl-2-methylphenyl)-2-mesityl-4-(4-methoxy-3,3-dimethylpiperidin-1-yl)-5,6,7,8-tetrahydropyrido[4,3-d]pyrimidine]
4 nM	28 nM	CO[C@H]1CCN(c2nc(-c3ccc(F)c4[nH]cc(C)c34)nc3c2CN(c2cc(C(C)C)ccc2C)CC3)CC1(C)C [Example 21-AF, (S)-2-(7-fluoro-3-methyl-1H-indol-4-yl)-6-(5-isopropyl-2-methylphenyl)-4-(4-methoxy-3,3-dimethylpiperidin-1-yl)-5,6,7,8-tetrahydropyrido[4,3-d]pyrimidine]
1 nM	22 nM	CO[C@@H]1CCN(c2nc(-c3c(C)ccc4[nH]nc(C)c34)nc3c2CN(c2cc(Cl)ccc2C)CC3)[C@H](C)C1 [Example 21-AG, 6-(5-chloro-2-methylphenyl)-2-(3,5-dimethyl-1H-indazol-4-yl)-4-((2R,4R)-4-methoxy-2-methylpiperidin-1-yl)-5,6,7,8-tetrahydropyrido[4,3-d]pyrimidine]
1 nM	6 nM	CO[C@@H]1CCN(c2nc(-c3c(C)ccc4[nH]nc(C)c34)nc3c2CN(c2cc(C(F)(F)F)ccc2C)CC3)[C@H](C)C1 [Example 21-AH, 2-(3,5-dimethyl-1H-indazol-4-yl)-4-((2R,4R)-4-methoxy-2-methylpiperidin-1-yl)-6-(2-methyl-5-(trifluoromethyl)phenyl)-5,6,7,8-tetrahydropyrido[4,3-d]pyrimidine]
1 nM	8 nM	CO[C@@H]1CCN(c2nc(-c3c(C)ccc4[nH]nc(C)c34)nc3c2CN(c2cc(C(C)C)ccc2C)CC3)CC1(C)C [Example 21-AI, (R)-2-(3,5-dimethyl-1H-indazol-4-yl)-6-(5-isopropyl-2-methylphenyl)-4-(4-methoxy-3,3-dimethylpiperidin-1-yl)-5,6,7,8-tetrahydropyrido[4,3-d]pyrimidine]
6 nM	15 nM	CO[C@@H]1CCN(c2nc(-c3c(C)ccc4[nH]nc(C)c34)nc3c2CN(c2cc(C(F)(F)F)ccc2C)CC3)CC1(C)C [Example 21-AJ, (R)-2-(3,5-dimethyl-1H-indazol-4-yl)-4-(4-methoxy-3,3-dimethylpiperidin-1-yl)-6-(2-methyl-5-(trifluoromethyl)phenyl)-5,6,7,8-tetrahydropyrido[4,3-d]pyrimidine]
5 nM	51 nM	CO[C@@H]1CCN(c2nc(-c3c(C)cccc3C)nc3c2CN(c2cc(C(F)(F)F)ccc2C)CC3)[C@H](C)C1 [Example 21-AK, 2-(2,6-dimethylphenyl)-4-((2R,4R)-4-methoxy-2-methylpiperidin-1-yl)-6-(2-methyl-5-(trifluoromethyl)phenyl)-5,6,7,8-tetrahydropyrido[4,3-d]pyrimidine]
1 nM	19 nM	CCO[C@@H]1CCN(c2nc(-c3c(C)ccc4[nH]nc(C)c34)nc3c2CN(c2cc(C(C)C)ccc2C)CC3)[C@H](C)C1 [Example 21-AL, 2-(3,5-dimethyl-1H-indazol-4-yl)-4-((2R,4R)-4-ethoxy-2-methylpiperidin-1-yl)-6-(5-isopropyl-2-methylphenyl)-5,6,7,8-tetrahydropyrido[4,3-d]pyrimidine]
1 nM	7 nM	Cc1ccc(C(C)C)cc1N1CCc2nc(-c3c(C)ccc4[nH]nc(C)c34)nc(N3CCCC[C@H]3C)c2C1 [Example 21-AM, (R)-2-(3,5-dimethyl-1H-indazol-4-yl)-6-(5-isopropyl-2-methylphenyl)-4-(2-methylpiperidin-1-yl)-5,6,7,8-tetrahydropyrido[4,3-d]pyrimidine]
0.5 nM	7 nM	CO[C@@H]1CCN(c2nc(-c3c(C)cccc3C)nc3c2CN(c2cc(C(C)C)ccc2C)CC3)[C@H](C)C1 [Example 21-D, 2-(2,6-Dimethylphenyl)-6-(5-isopropyl-2-methylphenyl)-4-((2R,4R)-4-methoxy-2-methylpiperidin-1-yl)-5,6,7,8-tetrahydropyrido[4,3-d]pyrimidine]
23 nM	422 nM	CO[C@@H]1CCN(c2nc(-c3cc(C)ccc3C)nc3c2CN(c2cc(C(C)C)ccc2C)CC3)[C@H](C)C1 [Example 21-E, 2-(2,5-dimeethylphenyl)-6-(5-isopropyl-2-methylphenyl)-4-((2R,4R)-4-methoxy-2-methylpiperidin-1-yl)-5,6,7,8-tetrahydropyrido[4,3-d]pyrimidine]
2 nM	11 nM	CO[C@@H]1CCN(c2nc(-c3c(C)cccc3C)nc3c2CN(c2cc(C4(C)COC4)ccc2C)CC3)[C@H](C)C1 [Example 21-K, 2-(2,6-dimethylphenyl)-4-((2R,4R)-4-methoxy-2-methylpiperidin-1-yl)-6-(2-methyl-5-(3-methyloxetan-3-yl)phenyl)-5,6,7,8-tetrahydropyrido[4,3-d]pyrimidine]
56 nM	181 nM	CO[C@@H]1CCN(c2nc(-c3c(C)cncc3C)nc3c2CN(c2cc(C(C)C)ccc2C)CC3)CC1(C)C [Example 21-M, (R)-2-(3,5-dimethylpyridin-4-yl)-6-(5-isopropyl-2-methylphenyl)-4-(4-methoxy-3,3-dimethylpiperidin-1-yl)-5,6,7,8-tetrahydropyrido[4,3-d]pyrimidine]
2 nM	8 nM	COc1ccc(C)c(N2CCc3nc(-c4c(C)cccc4C)nc(N4CC[C@@H](OC)C[C@H]4C)c3C2)c1 [Example 21-N, 2-(2,6-dimethylphenyl)-6-(5-methoxy-2-methylphenyl)-4-((2R,4R)-4-methoxy-2-methylpiperidin-1-yl)-5,6,7,8-tetrahydropyrido[4,3-d]pyrimidine]
7 nM	26 nM	CO[C@@H]1CCN(c2nc(-c3c(C)cccc3C)nc3c2CN(c2cc(Cl)ccc2C)CC3)[C@H](C)C1 [Example 21-P, 6-(5-chloro-2-methylphenyl)-2-(2,6-dimethylphenyl)-4-((2R,4R)-4-methoxy-2-methylpiperidin-1-yl)-5,6,7,8-tetrahydropyrido[4,3-d]pyrimidine]
1 nM	7 nM	CO[C@@H]1CCN(c2nc(-c3c(C)ccc4[nH]nc(C)c34)nc3c2CN(c2cc(C(C)C)ccc2C)CC3)[C@H](C)C1 [Example 21-Q, (+)-2-(3,5-dimethyl-1H-indazol-4-yl)-6-(5-isopropyl-2-methylphenyl)-4-((2R,4R)-4-methoxy-2-methylpiperidijn-1-yl)-5,6,7,8-tetrahydropyrido[4,3-d]pyrimidine]
1 nM	15 nM	CO[C@@H]1CCN(c2nc(-c3c(C)ccc4[nH]nc(C)c34)nc3c2CN(c2cc(C4(C)COC4)ccc2C)CC3)[C@H](C)C1 [Example 21-R, 2-(3,5-dimethyl-1H-indazol-4-yl)-4-((2R,4R)-4-methoxy-2-methylpiperidin-1-yl)-6-(2-methyl-5-(3-methyloxetan-3-yl)phenyl)-5,6,7,8-tetrahydropyrido[4,3-d]pyrimidine]
30 nM	180 nM	CO[C@@H]1CCN(c2nc(-c3c(C)ccnc3C)nc3c2CN(c2cc(C(C)C)ccc2C)CC3)[C@H](C)C1 [Example 21-S, 2-(2,4-dimethylpyridin-3-yl)-6-(5-isopropyl-2-methylphenyl)-4-((2R,4R)-4-methoxy-2-methylpiperidin-1-yl)-5,6,7,8-tetrahydropyrido[4,3-d]pyrimidine]
2 nM	17 nM	CO[C@@H]1CCN(c2nc(-c3c(C(F)(F)F)cnc4[nH]ccc34)nc3c2CN(c2cc(C(C)C)ccc2C)CC3)[C@H](C)C1 [Example 22-C, 6-(5-Isopropyl-2-methylphenyl)-4-((2R,4R)-4-methoxy-2-methylpiperidin-1-yl)-2-(5-(trifluoromethyl)-1H-pyrrolo[2,3-b]pyridin-4-yl)-5,6,7,8-tetrahydropyrido[4,3-d]pyrimidine]
40 nM	95 nM	CO[C@@H]1CCN(c2nc(-c3c(C)cccc3C)nc3c2CN(c2cc(C(C)C)nn2C)CC3)[C@H](C)C1 [Example 23-C, 2-(2,6-dimethylphenyl)-6-(3-isopropyl-1-methyl-1H-pyrazol-5-yl)-4-((2R,4R)-4-methoxy-2-methylpiperidin-1-yl)-5,6,7,8-tetrahydropyrido[4,3-d]pyrimidine]
